The values that follow are results of earlier work, collected in patent US20040002079A1.

For this series the following is noted: steady state, red cells vs plasma, different individuals.

`[Li]` [lithium, Lithium]: the “lithium ratio [Li]cell/[Li]pl” value is 0.2 to 0.8.
